This passage reports IC50 results from PubChem BioAssay AID1259321 (Sanford-Burnham Center for Chemical Genomics, 2017).

Calls of active or inactive are those of the source.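 The calls were made as follows: active = half-maximal concentration for changing protein binding to DNA, from the fitted dose curve, below 10 micromolar; inactive = the rest.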 Bounds are passed on as bounds.

The IC50 is the point on the concentration scale where inhibition reaches its midpoint.

Nuclear receptor subfamily 1 group D member 1 (Homo sapiens), sequence (P20393 whole entry, looked up): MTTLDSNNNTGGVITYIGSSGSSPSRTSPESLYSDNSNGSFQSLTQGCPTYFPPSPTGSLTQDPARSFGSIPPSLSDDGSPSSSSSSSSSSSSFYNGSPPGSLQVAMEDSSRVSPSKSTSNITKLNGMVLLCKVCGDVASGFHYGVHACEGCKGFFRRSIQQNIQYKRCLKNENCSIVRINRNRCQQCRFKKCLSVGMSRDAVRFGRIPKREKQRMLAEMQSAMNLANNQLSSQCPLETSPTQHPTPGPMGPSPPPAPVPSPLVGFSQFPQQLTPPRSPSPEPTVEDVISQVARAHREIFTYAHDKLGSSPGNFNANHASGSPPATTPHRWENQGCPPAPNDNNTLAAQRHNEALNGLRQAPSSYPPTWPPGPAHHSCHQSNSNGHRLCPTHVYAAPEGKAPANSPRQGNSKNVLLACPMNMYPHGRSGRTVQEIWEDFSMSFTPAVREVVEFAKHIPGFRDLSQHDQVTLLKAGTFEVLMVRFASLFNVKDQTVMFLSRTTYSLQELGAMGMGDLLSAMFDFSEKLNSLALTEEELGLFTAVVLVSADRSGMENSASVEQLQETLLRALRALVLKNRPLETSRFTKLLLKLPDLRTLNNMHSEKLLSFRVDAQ

This assay addresses Nuclear receptor subfamily 1 group D member 1 (Homo sapiens) (UniProt P20393). Nature of the assay: Rev-erbα–DNA interaction modulators – biochemical, FITC-DNA, fluorescence polarization, dose response (AID 1259321). Particulars: Rev-erb alpha-FITC-DNA binding. (In general: Polarisation of emitted light reports the rotation of a fluorescent probe.)
In the case of `Cc1cc(OC(C)C(=O)NCc2cccnc2)c2c(C)c(Cc3ccccc3)c(=O)oc2c1` (configuration not stated), the IC50 result was “inactive”.
The figure for `Cc1ccc2nc(N3CCN(S(=O)(=O)c4ccc(C)c(Cl)c4)CC3)c(C#N)cc2c1` is 3.31 µM; for `COc1ccc(NC(=O)/C(C#N)=C\c2ccc(N3CCOCC3)o2)cc1` it is > 40 µM (inactive).
The figure for `COc1ccc(-c2nc(-c3cccs3)c(-c3cccs3)[nH]2)cc1OC` is 5.77 µM; for `COCCn1c(=NC(=O)c2ccc3c(c2)OCCO3)sc2cc(S(N)(=O)=O)ccc21` it is 4.94 µM; for `Cc1ccc(CNc2nc3ccccc3n3nnnc23)cc1` it is “inactive”.
The value for `O=C(CSc1nc2ccccc2nc1N1CCCCC1)NCc1ccc(Cl)cc1Cl` was 7.15 µM.
For the molecule `Cc1oc2cc3oc(=O)c4c(c3cc2c1C)CCC4`, the IC50 is > 40 µM (inactive).
The figure for `Cc1ccc(-c2nc(NC(=O)CSc3cc(C)c4ccccc4n3)ns2)cc1` is 1.91 µM; for `Cc1ccccc1CNc1ncnc2cc(Cl)ccc12` it is 0.98 µM.
The figure for `O=[N+]([O-])c1ccc(NCc2ccccc2)c2nonc12` is 1.2 µM; for `COc1ccc(CCn2c(O)c(C=Nc3ccc(F)cc3)c(=O)[nH]c2=O)cc1OC` it is “inactive”; for `Cc1cc(C)c2nc(SCC(=O)Nc3ccccc3N3CCOCC3)c(C#N)cc2c1` it is 6.99 µM.
Regarding `COc1ccc(-c2c(C)nc3c(-c4ccsc4)cnn3c2N)cc1`, the IC50 was 9.42 µM.
`O=C(Nc1ccc(O)c(-c2nc3ccccc3s2)c1)c1cccs1`: the half-inhibitory concentration (IC50) is 3.03 µM.
The figure for `O=C(CSc1ncnc2c1oc1ccccc12)Nc1cccc(Cl)c1` is 4.59 µM.
The value for `COc1ccc(C(=O)NCCNc2nc3cc(C)cc(C)c3cc2C#N)nc1` was “inactive”.
The figure for `Cc1ccc2c3c(c(SCC(=O)Nc4nonc4C)nc2c1)CCCC3` is > 40 µM (inactive); for `N#Cc1cnc2cc(-c3ccccc3)nn2c1N` it is 3.52 µM.
With `Cc1c(-c2ccc(F)cc2)nc(N)c(C#N)c1-c1cccs1`, the concentration for half-maximal inhibition (IC50) is 1.77 µM.
Regarding `O=C(CSc1nc2ccccc2c(=O)n1-c1ccc(F)cc1)Nc1cc(S(=O)(=O)N2CCOCC2)ccc1Cl`, the IC50 was > 40 µM (inactive).
The figure for `CCOC(=O)c1cccc2c(=O)c(C(=O)c3ccc(Cl)cc3)c(C(=O)OC)[nH]c12` is > 40 µM (inactive); for `CC(C)NC(=O)CSc1nc(-c2cccs2)cc(-c2ccccc2)c1C#N` it is 3.27 µM; for `COc1ccc(-c2oc3ccccc3c(=O)c2OC(=O)c2ccc(C)cc2)cc1` it is “inactive”.
Turning to `COC(=O)c1cc2cc(Cl)ccc2nc1SC`, the concentration for half-maximal inhibition (IC50) is 2.53 µM.
The figure for `COc1cc(C(=O)Nc2nnc(-c3sccc3C)s2)cc(OC)c1OC` is 4.24 µM.
The figure for `CCc1nnc(NC(=O)CSc2nc3cc4c(cc3cc2C)OCCO4)s1` is 7.62 µM; for `Oc1c(C=Nc2cccc3cccnc23)sc2ccccc12` it is 8.64 µM; for `CCOC(=O)C(C)Sc1cc(CS(=O)(=O)c2ccccc2)nc(-c2ccccc2)n1` (configuration not stated) it is > 40 µM (inactive).
The value for `COCCn1c(=NC(=O)c2ccco2)sc2cc(C(=O)OC)ccc21` was 4.87 µM.
On to `COc1ccc2c(c1)c(=O)oc1cc(OCC(=O)NC3CC3)ccc12`, for which the IC50 is 6.09 µM.
The value for `COc1ccc(NC(=O)NNC(=O)c2cc3ccccc3cc2O)cc1` was 9.78 µM; that for `COc1cccc(OC)c1-c1nn2c(-c3cc(-c4ccccc4)n[nH]3)nnc2s1` was “inactive”.
In the case of `C=CCN1C(=O)/C(=C2/Sc3ccc(OC)cc3N2C)SC1=NCc1ccccc1`, the IC50 was 6.32 µM.
The figure for `O=C(COc1ccc2ccccc2c1Br)NNC(=O)Nc1ccccc1` is 0.778 µM; for `CCCCn1c(SC(C)C(=O)NCC2CCCO2)nc2cc(C(=O)OC)ccc2c1=O` (configuration not stated) it is > 40 µM (inactive); for `Cc1ccc2nc(SCC(=O)Nc3ccc4sc(C)nc4c3)c(C#N)cc2c1` it is > 40 µM (inactive).
The value for `CCN(CC)c1ccc(/C=C(\C#N)C(N)=S)cc1` was “inactive”; that for `CCN(CC)C(=O)CSC1=C(C#N)C(c2cccs2)C=C(C)N1` (configuration not stated) was “inactive”.
The figure for `O=C(CSc1ncnc2c1oc1ccccc12)c1cccs1` is 6.36 µM; for `CSc1nnc(N2C(=O)C(O)=C(C(=O)c3ccco3)C2c2cccc(Cl)c2)s1` (configuration not stated) it is “inactive”; for `Oc1ccccc1-c1nc(NCc2ccccc2)c2ccccc2n1` it is > 40 µM (inactive).
With `O=C(CSc1nnc(-c2cccs2)n1-c1cccc(Cl)c1)c1cccc2c1OCCO2`, the IC50 is 2.25 µM.
For `CC(=O)NC(=S)Nc1ccc2oc(-c3cc(F)c(F)cc3Cl)nc2c1`, the IC50 is 3.33 µM.
The value for `COc1cccc(CNC(=O)CCCn2c(=S)[nH]c3cc4c(cc3c2=O)OCO4)c1` was 0.616 µM; that for `Cc1cc(=O)oc2cc(OCC(=O)Nc3ccc(S(=O)(=O)N(C)C)cc3)ccc12` was > 40 µM (inactive); that for `COc1ccccc1NC(=O)c1sc2ncn(Cc3cccc4ccccc34)c(=O)c2c1C` was 2.38 µM.
The value for `CCC(=O)N=c1sc2c(OC)ccc(OC)c2n1C` was 2.98 µM.
Take `CCOC(=O)c1sc(NC(=S)NC(=O)c2ccc(OC)cc2)nc1C`: the 50% inhibitory concentration (IC50) is 2.11 µM.
The figure for `O=C(O)CN1C(=O)/C(=C\c2cn(CC(=O)N3CCOCC3)c3ccccc23)SC1=S` is 9.92 µM; for `CCCCNc1ccc2c3c(cccc13)C(=O)N(CCCC)C2=O` it is 2.78 µM; for `COc1ccc(C)cc1Nc1nc(-c2ccccc2O)nc2ccccc12` it is 4.05 µM.
The value for `CCOc1ccc(S(=O)(=O)Nc2nc3ccccc3nc2-n2ccc(=NC(=O)c3ccccc3C)cc2)cc1` was > 40 µM (inactive); that for `O=C(OCC(=O)N1CCN(S(=O)(=O)c2ccc(Cl)cc2)CC1)c1cc(Br)ccc1O` was 2.22 µM; that for `CCC(=O)c1ccc(OCc2ccc(C(=O)c3ccccc3)cc2)cc1` was 3.02 µM.
The figure for `Cc1nc2nc(SCC(=O)c3ccccc3)[nH]c2cc1Br` is > 40 µM (inactive); for `Cc1ccc2cc(-c3noc(C4CCCCC4)n3)c(=O)[nH]c2c1` it is “inactive”; for `COc1cc(/C=C(\C#N)c2nc3ccccc3[nH]2)cc(OC)c1O` it is “inactive”.
For the molecule `Cc1nn(-c2ccc(Cl)c(Cl)c2)c(=O)c2ccccc12`, the concentration for half-maximal inhibition (IC50) is 5.16 µM.
The value for `Cc1nonc1NC(=O)CSc1nc2c(C)cccc2cc1C#N` was > 40 µM (inactive).
The figure for `CC(=O)c1cccc(NC(=O)c2csc(-n3nc(C)cc3C(F)(F)F)n2)c1` is 3.61 µM; for `Cc1cc2cc3c(=O)[nH]c(=O)[nH]c3nc2cc1C` it is 3.34 µM.
The figure for `COc1ccc(Cn2ccc3ccc(-c4ccc5ccn(C(=O)c6cccc(OC)c6)c5c4)cc32)cc1` is > 40 µM (inactive); for `Cc1ccc(S(=O)(=O)c2nnn3c2nc(N2CCN(c4ccccn4)CC2)c2ccccc23)cc1C` it is 3.36 µM.
Turning to `N#Cc1c(N)nc(Sc2ccc(Cl)cc2)c(C#N)c1-c1ccccc1Cl`, the half-inhibitory concentration (IC50) is 6.32 µM.
Regarding `CCOc1ccccc1-c1nc(-c2ccc(NC(=O)Cc3ccc(OC)cc3)cc2)no1`, the IC50 is 6.52 µM.
On to `COc1cc2[nH]c(=S)nc(NCCc3ccc(C)cc3)c2cc1OC`, for which the IC50 is > 40 µM (inactive).
The figure for `Nc1ccc2nc3c(=O)n(C4CCCCC4)c(=O)[nH]c3nc2c1` is 6.28 µM.
The value for `O=S(=O)(Cc1cc(NCc2ccccc2)nc(-c2ccncc2)n1)c1ccccc1` was > 40 µM (inactive).
The value for `O=C(CSc1nnc(-c2ccncc2)n1-c1ccc(Cl)cc1)c1ccc(Cl)c(Cl)c1` was 0.278 µM.
For the molecule `CN1C(=O)c2cc(NC(=O)Nc3ccccc3F)ccc2OC[C@H]2O[C@@H](CC(=O)NCc3ccc(-c4ccccc4)cc3)CC[C@@H]21`, the IC50 is 3.55 µM.
On to `COc1ccc2c(C)cc(SCC(=O)NC3CCCCC3)nc2c1`, for which the IC50 is > 40 µM (inactive).
The figure for `O=C(NCc1ccccn1)c1ccc(Cn2c(=S)[nH]c3ccc(Br)cc3c2=O)cc1` is 2.63 µM; for `O=C(OCCN1C(=O)c2cccc3c(N4CCOCC4)ccc(c23)C1=O)c1ccc(Cl)cc1` it is 5.07 µM.
The value for `CN1/C(=C\C=C2C(=O)NC(=S)NC2=O)C(C)(C)c2ccccc21` was 6.96 µM; that for `CCOC(=O)N1CCC(n2c(SCC(=O)c3ccccc3)nc3ccsc3c2=O)CC1` was 2.26 µM.
With `COc1cc2c(cc1OC)-c1cc3ccc4c(c3c[n+]1CC2)OCO4`, the IC50 result is “inactive”.
The value for `Cc1cc(NC(=O)CSc2nc3cc(C)c(C)cc3cc2C)no1` was > 40 µM (inactive); that for `CCN(CC)c1ccc(C=C2SC(=S)NC2=O)cc1` was 6.72 µM.
Turning to `CCN(CC)S(=O)(=O)c1ccc(N2CCCCC2)c(NC(=O)C2CSC3(C)CCC(=O)N23)c1` (configuration not stated), the IC50 result was “inactive”.
As to `C=CCn1c(=NC(=O)c2ccco2)sc2cc(C(=O)OC)ccc21`, the IC50 result was “inactive”.
Regarding `CC(C)(C)c1ccc(C(=O)c2c[nH]c(C(=O)NCc3cccs3)c2)cc1`, the IC50 is 3.88 µM.
The figure for `COC(=O)c1ccc(Cn2ccc3ccc(-c4ccc5ccn(C(=O)c6ccc(C)cc6)c5c4)cc32)cc1` is 1.56 µM; for `CCOC(=O)CSc1nc2cc3c(cc2cc1C#N)OCCO3` it is > 40 µM (inactive).
The figure for `O=C(Cn1c(=S)[nH]c2ccccc2c1=O)NCCc1ccccc1` is 8.97 µM; for `Cc1ccc(S(=O)(=O)c2nnn3c2nc(N2CCN(c4ccccn4)CC2)c2ccccc23)cc1` it is 0.876 µM; for `N#CC(C#N)=C1C=C2C=C(N3CCCCCC3)CCC2CC1` (configuration not stated) it is 4.8 µM.
In the case of `COc1cc(NC(=O)CCn2c(=S)[nH]c3ccccc3c2=O)cc(OC)c1OC`, the IC50 entry was “inactive”.
With `Cc1cccc(N2CCN(c3ccc4cc(S(=O)(=O)N5CCCCC5)ccc4n3)CC2C)c1` (configuration not stated), the IC50 was 4.89 µM.
The figure for `Cc1cc(C)c2cc(C#N)c(SCC(=O)Nc3cc(C)on3)nc2c1` is 7.32 µM.
The figure for `O=C(CSc1ncnc2c1oc1ccccc12)Nc1cccc(F)c1` is 2.51 µM; for `O=C(Nc1nc(-c2ccccc2)c(C(=O)c2ccccc2)s1)c1ccc(S(=O)(=O)N2CCCCC2)cc1` it is 0.541 µM.
